{
  "source": "paper PMC2849142",
  "about": "(Clinical and translational science, 2009)",
  "key": {"NRVMs [1]": {"test_system": "NRVMs", "test": "Rescue of sunitinib injury in NRVMs by AMPK activators", "conditions": "cells pre-treated with AICAR, then exposed to sunitinib"}, "AMPK [2]": {"test_system": "AMPK", "test": "AICAR-induced activation of AMPK in NRVMs", "type": "cell-based, rat", "conditions": "for activity of AMPK following AICAR, as determined by ACC phosphorylation: NRVMs pre-treated 4h, then AICAR 1 mM 1h"}, "[3]": {"test_system": "Neonatal rat ventricular myocytes (NRVMs)", "test": "ATP content of cultured cardiomyocytes", "type": "cell-based"}, "[4]": {"test_system": "Neonatal rat ventricular myocytes (NRVMs)", "test": "TUNEL staining of cultured cardiomyocytes", "type": "cell-based"}, "NRVMs [5]": {"test_system": "NRVMs", "conditions": "cited from earlier work"}, "AMPK [6]": {"test_system": "AMPK", "test": "Phospho-ACC immunoblot of heart lysates of treated mice", "type": "in vivo, mouse", "conditions": "25 mg/kg/d, 5 wks, p < 0.05 vs. control, n = 4 hearts"}, "RET": {"test_system": "RET", "conditions": "read-out: IC50 vs RET; known sunitinib target; cited from earlier work"}, "C57Bl/6 mice [7]": {"test_system": "C57Bl/6 mice", "test": "Echocardiographic indices of sunitinib-treated mice", "type": "in vivo, mouse", "conditions": "25 mg/kg/d in chow, 5 weeks, mean ± SD"}, "mTORC1": {"test_system": "mTORC1", "test": "Phospho-eEF2 immunoblot in NRVMs", "type": "cell-based, rat", "conditions": "sunitinib 1 μM, p < 0.01, n = 4"}, "patients": {"test_system": "patients", "conditions": "cited from earlier work"}, "C57Bl/6 mice [8]": {"test_system": "C57Bl/6 mice", "test": "Myocardial capillary density", "type": "in vivo, mouse", "conditions": "25 mg/kg/d, 5 weeks, isolectin B4, n = 3"}, "AMPK [9]": {"test_system": "AMPK", "test": "Phospho-AMPK", "type": "cell-based, rat", "conditions": "NRVMs, sunitinib 1 μM; p < 0.01 vs. control, n = 4"}, "CAMKK1": {"target": "CAMKK1 (Homo sapiens, UniProt Q8N5S9)", "sequence (Q8N5S9 whole entry)": "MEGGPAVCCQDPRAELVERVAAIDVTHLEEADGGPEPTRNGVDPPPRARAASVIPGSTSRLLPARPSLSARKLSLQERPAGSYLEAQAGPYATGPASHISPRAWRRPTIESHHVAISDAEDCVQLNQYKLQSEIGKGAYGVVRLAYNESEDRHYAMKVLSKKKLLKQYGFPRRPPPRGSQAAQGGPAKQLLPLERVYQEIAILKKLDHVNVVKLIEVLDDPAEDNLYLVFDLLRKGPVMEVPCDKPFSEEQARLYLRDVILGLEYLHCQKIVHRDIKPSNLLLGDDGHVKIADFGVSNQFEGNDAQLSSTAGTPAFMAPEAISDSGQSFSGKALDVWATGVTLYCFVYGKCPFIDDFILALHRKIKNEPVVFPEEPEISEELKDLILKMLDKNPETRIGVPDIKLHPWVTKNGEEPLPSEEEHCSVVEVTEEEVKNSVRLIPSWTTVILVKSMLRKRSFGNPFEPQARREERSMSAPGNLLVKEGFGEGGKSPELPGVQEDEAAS", "test": "Recombinant biochemical kinase assay, sunitinib vs CAMKK1"}, "[10]": {"conditions": "ref http://www.pfizer.com/files/products/uspi_sutent.pdf; cited from earlier work"}, "mitochondria": {"test_system": "mitochondria", "conditions": "cited from earlier work"}, "AMPK [11]": {"test_system": "AMPK", "test": "Phospho-ACC immunoblot in NRVMs", "type": "cell-based, rat", "conditions": "sunitinib 1 μM, p < 0.01, n = 4"}, "C57Bl/6 mice [12]": {"test_system": "C57Bl/6 mice", "test": "Cardiomyocyte cross-sectional area on H&E-stained heart sections of treated mice", "type": "in vivo, mouse", "conditions": "25 mg/kg/d, 5 weeks, p < 0.01 vs. vehicle, n = 4"}, "[13]": {"test_system": "Neonatal rat ventricular myocytes (NRVMs)", "test": "Mitochondrial membrane potential", "type": "cell-based", "conditions": "1 μM sunitinib, 12h"}},
  "note": "Like-named read-outs stand apart in the source and are kept apart here.",
  "data": [
    {"smiles": "NC(=O)c1ncn([C@@H]2O[C@H](CO)[C@@H](O)[C@H]2O)c1N", "note": "[AICAR]", "values": [
      {"measurement": "rescue of sunitinib toxicity by pre-treatment with the AMPK activator", "setting": "NRVMs [1]", "value": "failed to rescue"},
      {"measurement": "AMPK signaling (phospho-ACC) in the setting of sunitinib", "setting": "AMPK [2]; AICAR 1 mM 1h after sunitinib pre-treatment 4h", "value": "failed to increase AMPK signaling"}
    ]},
    {"smiles": "c1cc(-c2cnn3cc(-c4ccc(OCCN5CCCCC5)cc4)cnc23)ccn1", "note": "[Compound C]", "values": [
      {"measurement": "[ATP] in cardiomyocytes", "setting": "[3]", "value": "reduction in [ATP]"},
      {"measurement": "cardiomyocyte apoptosis (TUNEL)", "setting": "[4]", "value": "induced apoptosis"},
      {"measurement": "activity of AMPK following AICAR, as determined by ACC phosphorylation", "setting": "AMPK [2]", "value": "Inhibition"}
    ]},
    {"smiles": "CN(C)C(=N)N=C(N)N", "note": "[metformin]", "values": [
      {"measurement": "reduction of sunitinib injury in NRVMs", "setting": "NRVMs [5]", "value": "failed to reduce sunitinib injury"}
    ]},
    {"smiles": "CCN(CC)CCNC(=O)c1c(C)[nH]c(/C=C2\\C(=O)Nc3ccc(F)cc32)c1C", "note": "[sunitinib]", "values": [
      {"measurement": "phosphorylation of ACC2 in the heart in vivo", "setting": "AMPK [6]", "value": "significantly reduced"},
      {"measurement": "IC50", "setting": "RET", "value": "[…]"},
      {"measurement": "EF (ejection fraction)", "setting": "C57Bl/6 mice [7]", "value": "52.5 ± 6.85", "unit": "%"},
      {"measurement": "FS (fractional shortening)", "setting": "C57Bl/6 mice [7]", "value": "31.3 ± 5.07", "unit": "%"},
      {"measurement": "LVEDD (left ventricular end-diastolic dimension)", "setting": "C57Bl/6 mice [7]", "value": "3.51 ± 0.18", "unit": "mm"},
      {"measurement": "LVPW (left ventricular posterior wall thickness)", "setting": "C57Bl/6 mice [7]", "value": "0.86 ± 0.06", "unit": "mm"},
      {"measurement": "LVW/BW (left ventricular mass normalized to body weight)", "setting": "C57Bl/6 mice [7]", "value": "4.49 ± 0.28", "unit": "mg/g"},
      {"measurement": "LVESD (left ventricular end-systolic dimension)", "setting": "C57Bl/6 mice [7]; P < 0.05 versus vehicle", "value": "2.41 ± 0.27", "unit": "mm"},
      {"measurement": "phosphorylation of eEF2", "setting": "mTORC1", "value": "marked increase"},
      {"measurement": "patients developing congestive heart failure (CHF)", "setting": "patients", "value": "8–15%"},
      {"measurement": "myocardial capillary density", "setting": "C57Bl/6 mice [8]", "value": "does not alter"},
      {"measurement": "[ATP] in cardiomyocytes", "setting": "[3]; 8h treatment, p < 0.05 vs. control", "value": "significantly reduced"},
      {"measurement": "cardiomyocyte apoptosis (TUNEL)", "setting": "[4]; 28 hrs treatment, p < 0.05 vs. control", "value": "induce cardiomyocyte apoptosis"},
      {"measurement": "phosphorylation of AMPK at the activating site (T172)", "setting": "AMPK [9]", "value": "modest but consistent increase"},
      {"measurement": "IC50", "setting": "CAMKK1; IC50 vs CAMKK1 (range)", "value": "4.5 to 6", "unit": "µM"},
      {"measurement": "IC50", "setting": "CAMKK1; Mean IC50, recombinant biochemical kinase assays, two to seven sets of assays", "value": 5.25, "unit": "µM"},
      {"measurement": "volume of distribution", "setting": "[10]", "value": 2230, "unit": "L"},
      {"measurement": "direct toxicity to mitochondria", "setting": "mitochondria", "value": "not directly toxic to mitochondria"},
      {"measurement": "activity of AMPK following AICAR, as determined by ACC phosphorylation", "setting": "AMPK [2]", "value": "significantly reduced"},
      {"measurement": "phosphorylation of ACC1/2", "setting": "AMPK [11]", "value": "significantly reduced"},
      {"measurement": "cardiomyocyte size (cross-sectional area) on H & E-stained heart sections", "setting": "C57Bl/6 mice [12]", "value": "cardiomyocyte hypertrophy"},
      {"measurement": "mitochondrial membrane potential (Δψm)", "setting": "[13]", "value": "loss of Δψm"}
    ]}
  ]
}
